Tests used:
H460 tumors = test: Human lung tumor xenografts (H460) in athymic nude mice, tumor volume % T/C
SW1990 tumors = test: Human pancreatic tumor xenografts (SW1990) in athymic nude mice, tumor volume % T/C; type: in vivo
Description: Female athymic nude mice (Harlan Laboratories Models, S.L. (Barcelona, Spain) were utilized for all experiments. Animals were housed in individually ventilated cages, up to ten per cage in a 12-hour light-dark cycle at 21-23° C. and 40-60% humidity. The mice were allowed free access to irradiated standard rodent diet and sterilized water. Animals were acclimated for at least 5 days prior to tumor implantation with a tumor cell suspension.
Each animal was subcutaneously implanted on the right flank, using 26G needle and a 1 cc syringe, with 5×10^6 SW1990 cells, from in vitro passage 12, in 0.05 mL suspension of 50% Matrigel and 50% serum free medium, without antibiotics.
PM01183 was provided in the form of vials of lyophilized PM01183 cake which was reconstituted with water for infusion to a concentration of 0.2 mg/mL. The PM01183 stock solution was further diluted in 5% glucose solution for injection to the dosing formulation concentrations.
Dose level groups were administered either as single agents or in combination.
Comparison of the median tumor volume in the treatment groups (T) to the median tumor volume in the control group (T/C×100%) was used for evaluation of the antitumor efficacy.

[1] = tested on: A549 human lung carcinoma cell line; test: MTT cytotoxicity assay in A549 cells: IC50 of single agents and combinations with PM01183; type: cell-based; conditions: Homo sapiens, A549, 72 h
In short: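 A549 cells seeded at 5,000 per well, grown 24 h drug-free, then exposed to vehicle or compounds for 72 h, either singly or combined with PM01183. Combination responses plotted against dose ratio relative to an additivity line.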

[2] = PM01183 0.045 mg/kg iv days 0,7,14
[3] = PM01183 0.09 mg/kg iv days 0,7,14
[4] = PM01183 0.135 mg/kg iv days 0,7,14
[5] = PM01183 0.18 mg/kg iv days 0,7,14

With `COc1ccc2[nH]c3c(c2c1)CCN[C@]31CS[C@@H]2c3c(OC(C)=O)c(C)c4c(c3[C@H](COC1=O)N1[C@@H]2[C@H]2c3c(cc(C)c(OC)c3O)C[C@@H]([C@@H]1O)N2C)OCO4` [PM01183] as the compound, how does the “% T/C on day 0” value (H460 tumors; PM01183 0.045 mg/kg) read?
The value was 108.3%.

And the “% T/C on day 2” value (H460 tumors; PM01183 0.045 mg/kg)?
Its value is 78.7%.

What about the “% T/C on day 5” value (H460 tumors; PM01183 0.045 mg/kg) of the same compound?
The value was 61.2%.

What about the “% T/C on day 7” value (H460 tumors; PM01183 0.045 mg/kg) of the same compound?
The value was 67.2%.

And the “% T/C on day 9” value (H460 tumors; PM01183 0.045 mg/kg)?
The value was 78.8%.

What about the “% T/C on day 12” value (H460 tumors; PM01183 0.045 mg/kg) of the same compound?
The value was 87.9%.

And the “% T/C on day 0” value (H460 tumors; PM01183 0.09 mg/kg)?
Its value is 116.9%.

And the “% T/C on day 2” value (H460 tumors; PM01183 0.09 mg/kg)?
Its value is 83.1%.

What about the “% T/C on day 5” value (H460 tumors; PM01183 0.09 mg/kg) of the same compound?
The value was 83.9%.

What about the “% T/C on day 7” value (H460 tumors; PM01183 0.09 mg/kg) of the same compound?
Its value is 76.9%.

And the “% T/C on day 9” value (H460 tumors; PM01183 0.09 mg/kg)?
Its value is 80.6%.

And the “% T/C on day 12” value (H460 tumors; PM01183 0.09 mg/kg)?
The value was 84.9%.

What about the “% T/C on day 0” value (H460 tumors; PM01183 0.135 mg/kg) of the same compound?
The value was 117.6%.

What about the “% T/C on day 2” value (H460 tumors; PM01183 0.135 mg/kg) of the same compound?
The value was 77.4%.

What about the “% T/C on day 5” value (H460 tumors; PM01183 0.135 mg/kg) of the same compound?
Its value is 67.5%.

What about the “% T/C on day 7” value (H460 tumors; PM01183 0.135 mg/kg) of the same compound?
Its value is 71.7%.

And the “% T/C on day 9” value (H460 tumors; PM01183 0.135 mg/kg)?
Its value is 66.7%.

And the “% T/C on day 12” value (H460 tumors; PM01183 0.135 mg/kg)?
Its value is 52.9%.

What about the “% T/C on day 0” value (H460 tumors; PM01183 0.18 mg/kg) of the same compound?
Its value is 114.4%.

What about the “% T/C on day 2” value (H460 tumors; PM01183 0.18 mg/kg) of the same compound?
Its value is 79.6%.

What about the “% T/C on day 5” value (H460 tumors; PM01183 0.18 mg/kg) of the same compound?
Its value is 74.7%.

What about the “% T/C on day 7” value (H460 tumors; PM01183 0.18 mg/kg) of the same compound?
The value was 75.0%.

What about the “% T/C on day 9” value (H460 tumors; PM01183 0.18 mg/kg) of the same compound?
Its value is 69.1%.

What about the “% T/C on day 12” value (H460 tumors; PM01183 0.18 mg/kg) of the same compound?
Its value is 64.9%.

And the “% T/C on day 0” value (SW1990 tumors; [2])?
Its value is 100.2%.

And the “% T/C on day 3” value (SW1990 tumors; [2])?
Its value is 83.6%.

And the “% T/C on day 6” value (SW1990 tumors; [2])?
The value was 82.8%.

What about the “% T/C on day 8” value (SW1990 tumors; [2]) of the same compound?
Its value is 93.3%.

What about the “% T/C on day 10” value (SW1990 tumors; [2]) of the same compound?
Its value is 82.9%.

What about the “% T/C on day 13” value (SW1990 tumors; [2]) of the same compound?
The value was 88.1%.

And the “% T/C on day 15” value (SW1990 tumors; [2])?
The value was 92.6%.

And the “% T/C on day 17” value (SW1990 tumors; [2])?
Its value is 86.5%.

And the “% T/C on day 20” value (SW1990 tumors; [2])?
The value was 85.1%.

And the “% T/C on day 22” value (SW1990 tumors; [2])?
Its value is 84.5%.

And the “% T/C on day 24” value (SW1990 tumors; [2])?
Its value is 85.8%.

And the “% T/C on day 28” value (SW1990 tumors; [2])?
The value was 85.4%.

And the “% T/C on day 0” value (SW1990 tumors; [3])?
The value was 101.1%.

What about the “% T/C on day 3” value (SW1990 tumors; [3]) of the same compound?
Its value is 81.5%.

What about the “% T/C on day 6” value (SW1990 tumors; [3]) of the same compound?
Its value is 72.8%.

What about the “% T/C on day 8” value (SW1990 tumors; [3]) of the same compound?
Its value is 68.7%.

And the “% T/C on day 10” value (SW1990 tumors; [3])?
The value was 68.4%.

What about the “% T/C on day 13” value (SW1990 tumors; [3]) of the same compound?
The value was 74.4%.

And the “% T/C on day 15” value (SW1990 tumors; [3])?
Its value is 74.7%.

And the “% T/C on day 17” value (SW1990 tumors; [3])?
The value was 80.7%.

What about the “% T/C on day 20” value (SW1990 tumors; [3]) of the same compound?
The value was 71.9%.

What about the “% T/C on day 22” value (SW1990 tumors; [3]) of the same compound?
Its value is 75.4%.

What about the “% T/C on day 24” value (SW1990 tumors; [3]) of the same compound?
The value was 77.3%.

What about the “% T/C on day 28” value (SW1990 tumors; [3]) of the same compound?
Its value is 63.9%.

And the “% T/C on day 0” value (SW1990 tumors; [4])?
Its value is 99.6%.

What about the “% T/C on day 3” value (SW1990 tumors; [4]) of the same compound?
The value was 81.3%.

What about the “% T/C on day 6” value (SW1990 tumors; [4]) of the same compound?
Its value is 71.0%.

And the “% T/C on day 8” value (SW1990 tumors; [4])?
The value was 73.1%.

And the “% T/C on day 10” value (SW1990 tumors; [4])?
Its value is 65.6%.

What about the “% T/C on day 13” value (SW1990 tumors; [4]) of the same compound?
Its value is 63.1%.

What about the “% T/C on day 15” value (SW1990 tumors; [4]) of the same compound?
The value was 56.3%.

And the “% T/C on day 17” value (SW1990 tumors; [4])?
Its value is 56.7%.

And the “% T/C on day 20” value (SW1990 tumors; [4])?
The value was 56.9%.

What about the “% T/C on day 22” value (SW1990 tumors; [4]) of the same compound?
Its value is 56.5%.

What about the “% T/C on day 24” value (SW1990 tumors; [4]) of the same compound?
The value was 53.0%.

What about the “% T/C on day 28” value (SW1990 tumors; [4]) of the same compound?
Its value is 51.7%.

What about the “% T/C on day 0” value (SW1990 tumors; [5]) of the same compound?
The value was 100.0%.

What about the “% T/C on day 3” value (SW1990 tumors; [5]) of the same compound?
Its value is 74.3%.

And the “% T/C on day 6” value (SW1990 tumors; [5])?
The value was 61.3%.

What about the “% T/C on day 8” value (SW1990 tumors; [5]) of the same compound?
The value was 59.4%.

And the “% T/C on day 10” value (SW1990 tumors; [5])?
Its value is 56.7%.

What about the “% T/C on day 13” value (SW1990 tumors; [5]) of the same compound?
Its value is 56.1%.

And the “% T/C on day 15” value (SW1990 tumors; [5])?
The value was 53.2%.

And the “% T/C on day 17” value (SW1990 tumors; [5])?
Its value is 47.8%.

And the “% T/C on day 20” value (SW1990 tumors; [5])?
The value was 44.2%.

What about the “% T/C on day 22” value (SW1990 tumors; [5]) of the same compound?
The value was 45.3%.

And the “% T/C on day 24” value (SW1990 tumors; [5])?
The value was 44.8%.

What about the “% T/C on day 28” value (SW1990 tumors; [5]) of the same compound?
The value was 38.9%.

What about the IC50 [1] of the same compound?
The IC50 was 3.6 nM.

Source: patent publication US11590129B2, “Combination therapy with an antitumor alkaloid” (PHARMA MAR, S.A., priority 2010, dated 2023)
